Source: patent publication US11331299B2, “Medicinal use of serrulatane diterpenes” (The University of Sydney, priority 2016, dated 2022)

How the values were obtained:
EZH1/EED/SUZ12 (h) = EZH1/EED/SUZ12 (h) (Homo sapiens, UniProt Q92800); assay: Epigenetic enzyme assay, Methyltransferases (MTs); assay type: biochemical; settings: read-out: % Inhibition of Control Values
TAF1(1) (h) bromodomain = biological target: T1, TAF1(1) (h) bromodomain (Homo sapiens, UniProt P21675); assay: Epigenetic binding assay, Bromodomain; settings: 10 μM; read-out: % Inhibition of Control Specific Binding
T1 construct: Bromodomain
T1 sequence (P21675 1397-1505 limits assumed): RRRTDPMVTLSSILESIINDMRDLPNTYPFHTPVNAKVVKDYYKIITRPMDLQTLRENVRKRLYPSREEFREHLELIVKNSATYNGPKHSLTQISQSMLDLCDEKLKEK

CBX2 (h) chromodomain = biological target: T2, CBX2 (h) chromodomain (Homo sapiens, UniProt Q14781); assay: Epigenetic binding assay, Chromodomain; settings: read-out: % Inhibition of Control Specific Binding
T2 construct: Recognition and specificity determinants of the human cbx chromodomains; Eurofins CEREP (France), contract laboratory
T2 sequence (Q14781 12-70 limits assumed): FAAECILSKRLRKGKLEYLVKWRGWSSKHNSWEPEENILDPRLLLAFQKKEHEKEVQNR

SUV39H2 (h) = SUV39H2 (h) (Homo sapiens, UniProt Q9H5I1); assay: Epigenetic enzyme assay, Methyltransferases (MTs); assay type: biochemical; settings: for inhibition at 10 µM: read-out: % Inhibition of Control Values
Sequence of SUV39H2 (h) (Q9H5I1 whole entry, the tested form may be a part): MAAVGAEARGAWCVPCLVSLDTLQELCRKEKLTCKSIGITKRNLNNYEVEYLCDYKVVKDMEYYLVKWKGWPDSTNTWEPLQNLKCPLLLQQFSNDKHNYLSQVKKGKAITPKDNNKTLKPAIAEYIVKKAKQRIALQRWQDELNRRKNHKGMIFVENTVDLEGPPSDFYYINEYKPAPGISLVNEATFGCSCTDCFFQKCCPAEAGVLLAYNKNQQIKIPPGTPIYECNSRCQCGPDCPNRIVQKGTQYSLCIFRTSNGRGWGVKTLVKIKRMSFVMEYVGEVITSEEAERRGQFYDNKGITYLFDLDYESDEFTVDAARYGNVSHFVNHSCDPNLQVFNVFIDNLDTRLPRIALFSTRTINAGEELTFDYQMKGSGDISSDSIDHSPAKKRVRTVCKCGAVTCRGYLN

L3MBTL3 (h) MBT domain = biological target: T3, L3MBTL3 (h) MBT domain (Homo sapiens, UniProt Q96JM7); assay: Epigenetic binding assay, MBT domain; settings: read-out: % Inhibition of Control Specific Binding
T3 construct: Tudor, MBT and chromo domains gauge the degree of lysine methylation; Eurofins CEREP (France), contract laboratory
T3 sequence (Q96JM7 225-555 limits assumed): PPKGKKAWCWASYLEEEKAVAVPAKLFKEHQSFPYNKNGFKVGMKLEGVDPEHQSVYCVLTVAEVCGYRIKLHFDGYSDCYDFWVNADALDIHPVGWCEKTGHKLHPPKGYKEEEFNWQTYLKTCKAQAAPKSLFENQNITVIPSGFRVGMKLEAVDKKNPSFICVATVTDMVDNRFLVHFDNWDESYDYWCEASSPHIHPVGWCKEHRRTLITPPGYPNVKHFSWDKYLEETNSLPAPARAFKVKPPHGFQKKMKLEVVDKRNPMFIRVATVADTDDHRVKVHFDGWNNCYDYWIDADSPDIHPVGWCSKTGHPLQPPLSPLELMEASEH

HL-60 leukemia cells = assay: In vitro cell viability assay (intracellular ATP, 72 hour); assay type: cell-based; settings: HL-60 (TB) (Leukemia); 10 μM
PRMT5 complex (h) = PRMT5 complex (h) (Homo sapiens, UniProt O14744); assay: Epigenetic enzyme assay, Methyltransferases (MTs); assay type: biochemical; settings: read-out: % Inhibition of Control Values
Sequence of PRMT5 complex (h) (O14744 whole entry): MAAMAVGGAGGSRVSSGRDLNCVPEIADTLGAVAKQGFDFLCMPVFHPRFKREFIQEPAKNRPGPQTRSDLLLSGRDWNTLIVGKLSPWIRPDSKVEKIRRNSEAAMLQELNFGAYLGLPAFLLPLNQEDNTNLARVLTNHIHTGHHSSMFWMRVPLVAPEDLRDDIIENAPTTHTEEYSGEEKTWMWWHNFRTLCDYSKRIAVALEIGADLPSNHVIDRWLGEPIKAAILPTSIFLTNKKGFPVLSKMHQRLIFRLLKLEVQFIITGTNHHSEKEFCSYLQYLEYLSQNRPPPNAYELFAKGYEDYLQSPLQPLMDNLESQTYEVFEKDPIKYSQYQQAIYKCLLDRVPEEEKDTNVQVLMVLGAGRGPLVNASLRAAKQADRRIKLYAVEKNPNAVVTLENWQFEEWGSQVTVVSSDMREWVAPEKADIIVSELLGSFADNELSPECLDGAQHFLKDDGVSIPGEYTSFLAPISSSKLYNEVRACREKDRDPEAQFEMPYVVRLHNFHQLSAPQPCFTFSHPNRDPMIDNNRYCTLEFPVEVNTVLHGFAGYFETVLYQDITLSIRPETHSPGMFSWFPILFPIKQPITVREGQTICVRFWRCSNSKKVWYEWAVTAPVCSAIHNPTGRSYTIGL
Sequence of PRMT5 complex (h) (Q9BQA1 whole entry partner): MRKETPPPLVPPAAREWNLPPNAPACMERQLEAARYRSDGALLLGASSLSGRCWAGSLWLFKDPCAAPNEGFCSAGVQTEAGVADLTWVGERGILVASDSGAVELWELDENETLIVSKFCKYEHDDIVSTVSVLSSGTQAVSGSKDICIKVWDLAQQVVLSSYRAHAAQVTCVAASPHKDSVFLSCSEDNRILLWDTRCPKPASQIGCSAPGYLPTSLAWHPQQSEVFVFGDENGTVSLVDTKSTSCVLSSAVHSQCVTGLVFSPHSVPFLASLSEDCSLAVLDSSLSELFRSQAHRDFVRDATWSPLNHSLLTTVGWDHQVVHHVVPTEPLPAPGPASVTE

HDAC7 (h) = biological target: T4, HDAC7 (h) (Homo sapiens, UniProt Q8WUI4); assay: Epigenetic enzyme assay, Histone deacetylase (HDACs); assay type: biochemical; settings: read-out: % Inhibition of Control Values
T4 sequence (Q8WUI4 1-952): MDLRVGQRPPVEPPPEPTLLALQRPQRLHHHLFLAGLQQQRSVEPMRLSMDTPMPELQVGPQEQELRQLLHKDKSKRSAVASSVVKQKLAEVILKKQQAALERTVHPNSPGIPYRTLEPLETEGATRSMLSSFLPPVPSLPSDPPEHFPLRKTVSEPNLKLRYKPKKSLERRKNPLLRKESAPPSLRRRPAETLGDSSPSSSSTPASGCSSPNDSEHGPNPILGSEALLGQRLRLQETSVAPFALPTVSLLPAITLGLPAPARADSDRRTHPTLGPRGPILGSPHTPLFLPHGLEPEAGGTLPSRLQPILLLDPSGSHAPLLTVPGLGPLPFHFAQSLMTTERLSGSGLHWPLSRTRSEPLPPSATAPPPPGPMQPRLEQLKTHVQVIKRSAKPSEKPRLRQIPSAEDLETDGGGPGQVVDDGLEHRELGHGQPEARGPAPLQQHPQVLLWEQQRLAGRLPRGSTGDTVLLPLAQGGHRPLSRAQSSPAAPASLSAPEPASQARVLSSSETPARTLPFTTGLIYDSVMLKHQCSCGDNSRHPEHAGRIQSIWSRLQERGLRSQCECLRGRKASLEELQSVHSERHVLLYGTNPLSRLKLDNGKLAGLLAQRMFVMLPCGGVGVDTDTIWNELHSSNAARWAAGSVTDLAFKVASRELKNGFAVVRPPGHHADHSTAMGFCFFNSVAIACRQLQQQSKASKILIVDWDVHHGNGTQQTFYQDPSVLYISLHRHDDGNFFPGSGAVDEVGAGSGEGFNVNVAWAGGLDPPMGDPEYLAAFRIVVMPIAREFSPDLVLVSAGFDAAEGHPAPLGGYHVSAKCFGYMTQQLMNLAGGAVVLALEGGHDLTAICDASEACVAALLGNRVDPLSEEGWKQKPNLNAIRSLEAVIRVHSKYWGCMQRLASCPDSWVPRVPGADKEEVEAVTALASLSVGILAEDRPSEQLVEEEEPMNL

TRIM 33 (h) PHD domain = biological target: T5, TRIM 33 (h) PHD domain (Homo sapiens, UniProt Q9UPN9); assay: Epigenetic binding assay, PHD domain; settings: for inhibition at 10 µM: read-out: % Inhibition of Control Specific Binding
T5 construct: Eurofins CEREP (France), contract laboratory
T5 sequence (Q9UPN9 887-934 limits assumed): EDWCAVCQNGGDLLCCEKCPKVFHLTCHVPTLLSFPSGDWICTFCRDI

[1] = test system: Rat L6 skeletal muscle cells; assay: [3H]-2-Deoxy-D-glucose uptake; assay type: cell-based; settings: 10 μM; assay year 2016
Method: The in vitro pharmacological studies were conducted by Eurofins PanLab (Taiwan) using the parameters shown in Table 13 with respect to appropriate literature references.

Sequence of EZH1/EED/SUZ12 (h) (Q92800 whole entry): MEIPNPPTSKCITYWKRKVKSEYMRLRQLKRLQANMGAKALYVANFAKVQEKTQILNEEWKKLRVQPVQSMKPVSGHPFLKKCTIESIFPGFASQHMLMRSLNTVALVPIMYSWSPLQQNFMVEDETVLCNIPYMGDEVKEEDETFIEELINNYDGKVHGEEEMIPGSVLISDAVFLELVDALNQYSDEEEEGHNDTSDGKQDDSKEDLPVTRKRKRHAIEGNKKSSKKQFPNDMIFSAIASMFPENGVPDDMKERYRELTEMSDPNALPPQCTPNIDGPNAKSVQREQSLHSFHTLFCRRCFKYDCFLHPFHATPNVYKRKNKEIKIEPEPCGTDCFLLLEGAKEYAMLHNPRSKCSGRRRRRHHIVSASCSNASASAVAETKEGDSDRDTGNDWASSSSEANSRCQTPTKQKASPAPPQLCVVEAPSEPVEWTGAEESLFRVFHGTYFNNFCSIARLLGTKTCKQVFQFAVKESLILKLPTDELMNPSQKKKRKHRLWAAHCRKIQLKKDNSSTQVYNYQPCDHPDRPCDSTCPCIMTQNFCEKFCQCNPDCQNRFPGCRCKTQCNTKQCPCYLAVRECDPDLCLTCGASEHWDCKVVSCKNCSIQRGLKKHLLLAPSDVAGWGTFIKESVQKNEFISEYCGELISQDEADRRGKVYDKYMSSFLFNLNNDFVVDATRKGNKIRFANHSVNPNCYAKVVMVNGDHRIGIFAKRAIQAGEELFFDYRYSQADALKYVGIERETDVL
Sequence of EZH1/EED/SUZ12 (h) (O75530 whole entry partner): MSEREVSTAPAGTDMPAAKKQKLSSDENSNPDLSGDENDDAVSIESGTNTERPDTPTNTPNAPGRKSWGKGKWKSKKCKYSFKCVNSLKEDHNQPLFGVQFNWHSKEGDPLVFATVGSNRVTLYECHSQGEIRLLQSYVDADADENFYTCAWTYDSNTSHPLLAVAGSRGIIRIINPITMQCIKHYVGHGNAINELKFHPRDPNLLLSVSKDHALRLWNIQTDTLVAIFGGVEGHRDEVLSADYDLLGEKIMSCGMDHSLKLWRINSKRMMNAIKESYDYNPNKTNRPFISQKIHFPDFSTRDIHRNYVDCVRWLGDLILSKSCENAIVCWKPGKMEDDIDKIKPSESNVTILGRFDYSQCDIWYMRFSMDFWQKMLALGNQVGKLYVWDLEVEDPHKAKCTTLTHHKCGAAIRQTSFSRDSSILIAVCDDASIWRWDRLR
Sequence of EZH1/EED/SUZ12 (h) (Q15022 whole entry partner): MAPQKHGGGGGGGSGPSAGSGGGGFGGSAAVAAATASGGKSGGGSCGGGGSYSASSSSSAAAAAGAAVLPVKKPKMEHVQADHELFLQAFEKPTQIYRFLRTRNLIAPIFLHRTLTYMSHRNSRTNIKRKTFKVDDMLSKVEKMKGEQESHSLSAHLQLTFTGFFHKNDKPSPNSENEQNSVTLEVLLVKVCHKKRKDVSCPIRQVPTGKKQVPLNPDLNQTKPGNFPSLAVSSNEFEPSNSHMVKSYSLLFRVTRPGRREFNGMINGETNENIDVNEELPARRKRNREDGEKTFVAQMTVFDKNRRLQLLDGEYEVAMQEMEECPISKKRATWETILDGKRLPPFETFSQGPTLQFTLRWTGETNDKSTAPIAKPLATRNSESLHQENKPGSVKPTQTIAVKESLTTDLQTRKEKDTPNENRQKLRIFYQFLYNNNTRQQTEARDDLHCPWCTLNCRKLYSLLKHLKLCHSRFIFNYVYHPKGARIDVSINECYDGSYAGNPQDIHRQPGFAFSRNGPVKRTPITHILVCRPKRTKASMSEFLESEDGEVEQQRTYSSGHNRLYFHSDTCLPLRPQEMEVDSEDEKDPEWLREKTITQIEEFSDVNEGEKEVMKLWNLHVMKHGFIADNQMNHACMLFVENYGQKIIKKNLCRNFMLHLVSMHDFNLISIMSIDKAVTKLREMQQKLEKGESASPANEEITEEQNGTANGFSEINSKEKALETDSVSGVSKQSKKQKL

SMILES	inhibition at 10 µM (EZH1/EED/SUZ12 (h)) [%]	inhibition at 10 µM (TAF1(1) (h) bromodomain) [%]	inhibition at 10 µM (CBX2 (h) chromodomain) [%]	inhibition at 10 µM (SUV39H2 (h)) [%]	inhibition at 10 µM (L3MBTL3 (h) MBT domain) [%]	% Cell growth (HL-60 leukemia cells) [%]	inhibition at 10 µM (PRMT5 complex (h)) [%]	inhibition at 10 µM (HDAC7 (h)) [%]	% Inhibition of Control Specific Binding (TRIM 33 (h) PHD domain; 10 μM)	inhibition at 10 µM (TRIM 33 (h) PHD domain) [%]	% Control Response, agonist (increase in 2-DG uptake relative to insulin response) [1] [%]	IC50 (SUV39H2 (h); read-out: Reference IC50) [µM]
CC(C)=CCC[C@H](CO)[C@@H]1CC[C@@H](C)c2c1cc(C)c(O)c2O [Compound 1, 7,8,18-trihydroxyserrulat-14-ene]	-1	48	17	-8	22	−62	8	-111	good inhibitory activity	59	−61	–
CC(C)=CCC[C@@H]1C(O)Oc2c(C)cc(O)c3c2[C@H]1CC[C@H]3C (stereo partly drawn) [Compound 2, 5,18-epoxyserrulat-14-en-8,18-diol]	3	17	6	-16	29	−35	-8	-6	–	3	–	–
CC(C)=CCC[C@@H]1COc2c(C)cc(O)c3c2[C@H]1CC[C@H]3C [Compound 3, 5,18-epoxy-8-hydroxyserrulat-14-ene]	-12	17	3	14	33	138	9	16	–	-2	−52	–
CC(C)=CCC[C@H](C)[C@@H]1CC[C@@H](C)c2c1cc(C)c(O)c2O [Compound 4, 7,8-dihydroxyserrulat-14-ene]	–	–	–	–	–	−83	–	–	–	–	−45	–
Nc1ncnc2c1ncn2[C@@H]1O[C@H](CSCC[C@H](N)C(=O)O)[C@@H](O)[C@H]1O [SAH]	–	–	–	–	–	–	–	–	–	–	–	24
